In patent publication US20250368666A1, “INDAZOLE COMPOUNDS” (TYRA BIOSCIENCES, INC., priority 2022, published 2025):

Legend:
FGFR1 = molecular target: T1, FGFR1 (Homo sapiens, UniProt P11362); experiment: Kinase binding assay (kinase-tagged T7 phage, affinity beads, qPCR), Kd; settings: read-out: FGFR1 (Kd nM)
T1 construct: made in house; host or cells: E. coli (BL21-derived), T7 phage
How it was run: (§1)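 Phage-tagged kinase capture on small-molecule affinity resin, compound competition, qPCR quantitation; Kd from Levenberg-Marquardt Hill fit.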

FGFR3 = molecular target: T2, FGFR3 (Homo sapiens, UniProt P22607); experiment: as above; settings: read-out: FGFR3 (Kd nM)
T2 construct: made in house; host or cells: E. coli (BL21-derived), T7 phage
How it was run: as §1

FGFR2 = molecular target: T3, FGFR2 (Homo sapiens, UniProt P21802); experiment: as above; settings: read-out: FGFR2 (Kd nM)
T3 construct: made in house; host or cells: E. coli (BL21-derived), T7 phage
How it was run: as §1

FGFR3 (V555M) = molecular target: T4, FGFR3 (V555M) (Homo sapiens, UniProt P22607, V555M); experiment: as above; settings: V555M mutant; read-out: FGFR3 (V555M) (Kd nM)
T4 construct: made in house; host or cells: E. coli (BL21-derived), T7 phage
How it was run: as §1

FGFR4 = molecular target: T5, FGFR4 (Homo sapiens, UniProt P22455); experiment: as above; settings: read-out: FGFR4 (Kd nM)
T5 construct: made in house; host or cells: E. coli (BL21-derived), T7 phage
How it was run: as §1

[1] = tested on: HuH7 cell line (FGF19 amplification); experiment: Cancer cell line cell viability assay (Cell Titer-Glo), 120 hr; format: cell-based; settings: Homo sapiens, Huh-7
How it was run: (§2)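 Cells seeded at 5,000-20,000/well, incubated overnight, then treated with a 9-dose, 4-fold dilution series from 3 μM in triplicate at 37° C, 5% CO2. Viability read by Cell Titer-Glo 2.0 luminescence as percent of DMSO control; IC50 from 4-parameter variable-slope sigmoidal fit.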

[2] = tested on: KG-1 cell line (FGFR 1-fusion); experiment: Cancer cell line cell viability assay (Cell Titer-Glo), 72 hr; format: cell-based; settings: Homo sapiens, KG-1, KG-1 cell line (FGFR1-fusion)
How it was run: as §2

[3] = tested on: KATO-III cell line (FGFR2 amplification); experiment: as above; format: cell-based; settings: Homo sapiens, KATO III
How it was run: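 Intracellular ATP was measured by Cell Titer-Glo 2.0 luminescence after cells were incubated with compound dilutions (top 3 μM, 4-fold, 9 doses). Values were expressed relative to DMSO-treated cells and IC50 was calculated from a variable-slope dose-response curve.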

[4] = tested on: RT112/84 cell line (FGFR3-fusion); experiment: as above; format: cell-based; settings: Homo sapiens, RT112/84, RT112/84 cell line (FGFR3-fusion)
How it was run: as §2

T3 sequence (P21802 22-821): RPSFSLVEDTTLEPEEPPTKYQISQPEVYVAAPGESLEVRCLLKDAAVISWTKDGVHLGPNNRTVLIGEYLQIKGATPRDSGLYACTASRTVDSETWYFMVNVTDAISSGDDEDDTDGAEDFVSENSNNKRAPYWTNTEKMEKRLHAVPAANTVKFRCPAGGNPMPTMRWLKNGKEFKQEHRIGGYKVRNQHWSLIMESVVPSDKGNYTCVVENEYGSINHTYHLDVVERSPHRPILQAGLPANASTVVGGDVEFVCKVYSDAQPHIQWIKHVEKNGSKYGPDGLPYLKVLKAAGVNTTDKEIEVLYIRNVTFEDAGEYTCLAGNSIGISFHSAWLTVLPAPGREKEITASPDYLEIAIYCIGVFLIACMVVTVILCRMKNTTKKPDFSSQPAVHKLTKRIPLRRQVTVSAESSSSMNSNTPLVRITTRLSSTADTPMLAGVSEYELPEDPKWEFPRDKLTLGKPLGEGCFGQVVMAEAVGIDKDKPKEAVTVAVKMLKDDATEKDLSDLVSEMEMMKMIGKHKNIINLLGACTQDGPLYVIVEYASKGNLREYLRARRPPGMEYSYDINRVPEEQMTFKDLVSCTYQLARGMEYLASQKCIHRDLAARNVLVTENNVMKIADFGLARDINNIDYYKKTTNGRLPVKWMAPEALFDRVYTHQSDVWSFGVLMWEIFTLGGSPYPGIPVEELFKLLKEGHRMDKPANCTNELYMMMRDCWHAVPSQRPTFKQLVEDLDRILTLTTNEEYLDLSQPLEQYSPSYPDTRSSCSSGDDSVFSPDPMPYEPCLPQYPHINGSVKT
T1 sequence (P11362 22-822): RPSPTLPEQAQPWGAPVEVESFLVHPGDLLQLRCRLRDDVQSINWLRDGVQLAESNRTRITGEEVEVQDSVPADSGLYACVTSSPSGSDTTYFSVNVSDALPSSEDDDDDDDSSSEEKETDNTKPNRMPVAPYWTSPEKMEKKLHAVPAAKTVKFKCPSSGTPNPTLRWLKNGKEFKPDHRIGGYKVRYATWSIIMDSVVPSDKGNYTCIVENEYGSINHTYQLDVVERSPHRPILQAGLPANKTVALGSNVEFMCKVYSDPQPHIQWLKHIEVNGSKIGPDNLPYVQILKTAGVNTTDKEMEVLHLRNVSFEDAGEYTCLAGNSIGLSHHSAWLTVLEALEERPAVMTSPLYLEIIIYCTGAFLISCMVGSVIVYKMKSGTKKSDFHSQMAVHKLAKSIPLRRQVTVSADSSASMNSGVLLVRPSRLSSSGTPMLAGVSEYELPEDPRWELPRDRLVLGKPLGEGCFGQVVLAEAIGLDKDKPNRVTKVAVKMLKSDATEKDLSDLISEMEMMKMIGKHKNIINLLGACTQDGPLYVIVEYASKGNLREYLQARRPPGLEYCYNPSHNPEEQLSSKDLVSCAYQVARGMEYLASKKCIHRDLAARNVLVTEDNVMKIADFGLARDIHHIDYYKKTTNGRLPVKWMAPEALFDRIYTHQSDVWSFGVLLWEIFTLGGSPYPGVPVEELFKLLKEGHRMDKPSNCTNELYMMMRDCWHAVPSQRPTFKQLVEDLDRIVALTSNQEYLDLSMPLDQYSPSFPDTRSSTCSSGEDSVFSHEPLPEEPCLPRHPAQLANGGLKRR
T2 sequence (P22607 23-806): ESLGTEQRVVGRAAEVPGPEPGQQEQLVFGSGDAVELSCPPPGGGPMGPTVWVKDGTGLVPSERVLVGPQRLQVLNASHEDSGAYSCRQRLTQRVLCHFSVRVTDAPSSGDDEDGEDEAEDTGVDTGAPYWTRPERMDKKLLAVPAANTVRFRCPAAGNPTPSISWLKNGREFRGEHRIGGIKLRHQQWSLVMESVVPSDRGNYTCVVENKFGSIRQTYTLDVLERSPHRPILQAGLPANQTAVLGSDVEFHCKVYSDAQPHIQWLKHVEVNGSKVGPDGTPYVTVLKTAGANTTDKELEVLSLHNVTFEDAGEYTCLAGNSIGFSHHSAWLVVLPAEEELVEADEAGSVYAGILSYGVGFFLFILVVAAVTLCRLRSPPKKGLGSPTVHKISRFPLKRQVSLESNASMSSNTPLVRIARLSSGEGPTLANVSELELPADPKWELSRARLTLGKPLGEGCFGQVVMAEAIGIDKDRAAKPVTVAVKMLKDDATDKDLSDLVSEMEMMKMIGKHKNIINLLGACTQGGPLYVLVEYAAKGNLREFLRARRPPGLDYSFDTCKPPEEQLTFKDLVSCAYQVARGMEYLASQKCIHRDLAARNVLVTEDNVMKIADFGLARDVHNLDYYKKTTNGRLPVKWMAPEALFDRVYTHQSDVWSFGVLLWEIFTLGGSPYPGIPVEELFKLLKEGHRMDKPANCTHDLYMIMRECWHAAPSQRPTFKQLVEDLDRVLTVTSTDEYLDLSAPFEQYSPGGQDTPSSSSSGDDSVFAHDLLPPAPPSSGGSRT
T5 sequence (P22455 22-802): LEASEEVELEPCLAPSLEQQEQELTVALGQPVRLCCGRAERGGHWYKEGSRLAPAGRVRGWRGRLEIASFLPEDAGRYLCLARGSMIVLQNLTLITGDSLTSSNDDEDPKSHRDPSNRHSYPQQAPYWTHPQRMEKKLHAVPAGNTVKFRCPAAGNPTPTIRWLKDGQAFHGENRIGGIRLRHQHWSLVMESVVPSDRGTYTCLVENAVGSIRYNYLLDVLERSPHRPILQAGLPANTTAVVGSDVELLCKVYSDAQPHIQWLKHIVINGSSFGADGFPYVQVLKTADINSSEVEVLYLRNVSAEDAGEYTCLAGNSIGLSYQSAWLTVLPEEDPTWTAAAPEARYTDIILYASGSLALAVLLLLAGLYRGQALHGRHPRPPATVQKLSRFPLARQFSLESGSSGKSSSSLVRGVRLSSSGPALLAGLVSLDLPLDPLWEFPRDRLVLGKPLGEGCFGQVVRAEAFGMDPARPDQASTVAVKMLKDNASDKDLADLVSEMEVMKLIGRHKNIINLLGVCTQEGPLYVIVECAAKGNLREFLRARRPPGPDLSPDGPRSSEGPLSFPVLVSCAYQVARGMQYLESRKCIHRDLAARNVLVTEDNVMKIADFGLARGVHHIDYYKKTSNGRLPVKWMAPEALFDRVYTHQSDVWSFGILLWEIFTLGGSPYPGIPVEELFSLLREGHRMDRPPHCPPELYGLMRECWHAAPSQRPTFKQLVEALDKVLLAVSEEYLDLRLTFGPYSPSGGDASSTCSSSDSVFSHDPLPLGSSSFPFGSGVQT
T4 sequence (P22607 23-806 V555M): as the sequence (P22607 23-806) above, with V533M counted along it

SMILES | Kd (FGFR1) [nM] | Kd (FGFR3) [nM] | Kd (FGFR2) [nM] | Kd (FGFR3 (V555M)) [nM] | Kd (FGFR4) [nM] | IC50 [1] [nM] | IC50 [2] [nM] | IC50 [3] [nM] | IC50 [4] [nM]
C[C@@H](O)CNC1(C)CN(c2ncc(-c3n[nH]c4ccc(O[C@H](C)c5c(Cl)cncc5Cl)cc34)cc2C#N)C1 [Example 56, 5-(5-((R)-1-(3,5-dichloropyridin-4-yl)ethoxy)-1H-indazol-3-yl)-2-(3-(((R)-2-hydroxypropyl)amino)-3-methylazetidin-1-yl)nicotinonitrile] | 1 to 50 | 1 to 50 | 1 to 50 | 1 to 50 | 1 to 50 | 0.1 to 50 | 200 to 1000 | 50 to 200 | 0.1 to 50
C[C@H](O)CNC1(C)CN(c2ncc(-c3n[nH]c4ccc(O[C@H](C)c5c(Cl)cncc5Cl)cc34)cc2C#N)C1 [Example 57, 5-(5-((R)-1-(3,5-dichloropyridin-4-yl)ethoxy)-1H-indazol-3-yl)-2-(3-(((S)-2-hydroxypropyl)amino)-3-methylazetidin-1-yl)nicotinonitrile] | 1 to 50 | 1 to 50 | 1 to 50 | 1 to 50 | 1 to 50 | 0.1 to 50 | 200 to 1000 | 50 to 200 | 0.1 to 50
COc1cc2[nH]nc(-c3cnc(N4CC(C)(C)C4)nc3)c2cc1O[C@H](C)c1c(Cl)cncc1Cl [Example 61, 5-[(1R)-1-(3,5-dichloro-4-pyridyl)ethoxy]-3-[2-(3,3-dimethylazetidin-1-yl)pyrimidin-5-yl]-6-methoxy-1H-indazole] | 1 to 50 | 1 to 50 | 1 to 50 | 1 to 50 | 1 to 50 | 0.1 to 50 | 50 to 200 | 50 to 200 | 0.1 to 50
COc1cc2[nH]nc(-c3cnc(N4CC(C)(NC(C)C)C4)nc3)c2cc1O[C@H](C)c1c(Cl)cncc1Cl [Example 82, (R)-1-(5-(5-(1-(3,5-dichloropyridin-4-yl)ethoxy)-6-methoxy-1H-indazol-3-yl)pyrimidin-2-yl)-N-isopropyl-3-methylazetidin-3-amine] | 1 to 50 | 1 to 50 | 1 to 50 | 1 to 50 | 1 to 50 | 0.1 to 50 | 0.1 to 50 | 0.1 to 50 | 0.1 to 50
C[C@@H](Oc1ccc2[nH]nc(-c3cnc(N4CC(C)(NC(=O)CN(C)C)C4)c(C#N)c3)c2c1)c1c(Cl)cncc1Cl [Example 87, (R)-N-(1-(3-cyano-5-(5-(1-(3,5-dichloropyridin-4-yl)ethoxy)-1H-indazol-3-yl)pyridin-2-yl)-3-methylazetidin-3-yl)-2-(dimethylamino)acetamide] | 1 to 50 | 1 to 50 | 50 to 300 | 1 to 50 | 1 to 50 | 0.1 to 50 | 200 to 1000 | 200 to 1000 | 50 to 200

More lines, now with the values ahead:

Kd (FGFR1) [nM] | Kd (FGFR3) [nM] | Kd (FGFR2) [nM] | Kd (FGFR3 (V555M)) [nM] | Kd (FGFR4) [nM] | IC50 [1] [nM] | IC50 [2] [nM] | IC50 [3] [nM] | IC50 [4] [nM] | SMILES
1 to 50 | 1 to 50 | 1 to 50 | 1 to 50 | 1 to 50 | 0.1 to 50 | 200 to 1000 | 50 to 200 | 50 to 200 | C[C@@H](Oc1ccc2[nH]nc(-c3cnc(N4CC(C)(NCCO)C4)c(C#N)c3)c2c1)c1c(Cl)cncc1Cl [Example 52, 5-[5-[(1R)-1-(3,5-dichloro-4-pyridyl)ethoxy]-1H-indazol-3-yl]-2-[3-(2-hydroxyethylamino)-3-methyl-azetidin-1-yl]pyridine-3-carbonitrile]
1 to 50 | 1 to 50 | 1 to 50 | 1 to 50 | 1 to 50 | 0.1 to 50 | 200 to 1000 | 200 to 1000 | 50 to 200 | C[C@@H](Oc1ccc2[nH]nc(-c3cnc(N4CC(C)(NCC(C)(C)O)C4)c(C#N)c3)c2c1)c1c(Cl)cncc1Cl [Example 54, (R)-5-(5-(1-(3,5-dichloropyridin-4-yl)ethoxy)-1H-indazol-3-yl)-2-(3-((2-hydroxy-2-methylpropyl)amino)-3-methylazetidin-1-yl)nicotinonitrile]
